# Measured values from patent publication US11673898B2, “Substituted inhibitors of menin-MLL and methods of use” (Kura Oncology, Inc., priority 2016, dated 2023).
# Molecular target: T1, Menin MLL 4-43 (Homo sapiens, UniProt O00255)
# T1 sequence (O00255 1-610): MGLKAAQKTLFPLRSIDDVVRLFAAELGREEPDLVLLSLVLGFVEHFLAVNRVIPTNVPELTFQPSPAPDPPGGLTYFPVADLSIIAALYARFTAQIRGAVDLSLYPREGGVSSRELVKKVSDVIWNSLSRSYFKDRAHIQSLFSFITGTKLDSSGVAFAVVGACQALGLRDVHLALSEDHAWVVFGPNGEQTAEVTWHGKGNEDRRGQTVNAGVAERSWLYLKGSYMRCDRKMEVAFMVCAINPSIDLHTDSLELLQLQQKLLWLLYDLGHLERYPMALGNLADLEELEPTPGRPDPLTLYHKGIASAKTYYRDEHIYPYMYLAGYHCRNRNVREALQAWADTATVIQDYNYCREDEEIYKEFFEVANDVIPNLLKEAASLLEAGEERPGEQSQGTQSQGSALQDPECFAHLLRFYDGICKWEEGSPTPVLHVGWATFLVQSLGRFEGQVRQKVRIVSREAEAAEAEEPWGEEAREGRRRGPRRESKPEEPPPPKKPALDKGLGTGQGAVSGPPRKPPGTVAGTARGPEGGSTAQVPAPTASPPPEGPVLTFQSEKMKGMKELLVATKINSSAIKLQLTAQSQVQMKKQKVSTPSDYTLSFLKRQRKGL
# Assay: Fluorescence polarization (FP) competition assay of the menin-MLL interaction
# Format: binding
# Details: fluorescence polarization assay; read-out: Menin MLL 4-43 IC50
row,Structure (SMILES),IC50 [nM]
1,CCS(=O)(=O)N1CCN([C@@H](C)Cn2c(C#N)cc3c(C)c(CN4CCC(Nc5nc(NC)nc6sc(CC(F)(F)F)cc56)CC4)ccc32)CC1 [Compound 210],< 50
2,CNc1nc(NC2CCN(Cc3ccc4c(cc(C#N)n4C[C@H](C)N4CCN(S(=O)(=O)C5CC5)CC4)c3C)CC2)c2cc(CC(F)(F)F)sc2n1 [Compound 211],50 to 250
3,C=CC(=O)NC1CCN([C@@H](C)Cn2c(C#N)cc3c(C)c(CN4CCC(Nc5nc(NC)nc6sc(CC(F)(F)F)cc56)CC4)ccc32)CC1 [Compound 212],< 50
4,CCC(=O)NC1CCN([C@@H](C)Cn2c(C#N)cc3c(C)c(CN4CCC(Nc5nc(NC)nc6sc(CC(F)(F)F)cc56)CC4)ccc32)CC1 [Compound 213],< 50
5,CNc1nc(NC2CCN(Cc3ccc4c(cc(C#N)n4C[C@H](C)N4CCOC(C(=O)N(C)C)C4)c3C)CC2)c2cc(CC(F)(F)F)sc2n1 (stereo partly shown) [Compound 215],< 50
6,CNc1nc(NC2CCN(Cc3ccc4c(cc(C#N)n4C[C@H](C)N4CCOC(C(N)=O)C4)c3C)CC2)c2cc(CC(F)(F)F)sc2n1 (stereo partly shown) [Compound 216],< 50
7,Cc1nc(NC2CCN(Cc3ccc4c(cc(C#N)n4C[C@H](C)N4CCS(=O)(=O)CC4)c3C)CC2)c2cc(CC(F)(F)F)sc2n1 [Compound 219],< 50
8,CNC(=O)CC1CCN([C@@H](C)Cn2c(C#N)cc3c(C)c(CN4CCC(Nc5nc(C)nc6sc(CC(F)(F)F)cc56)CC4)ccc32)CC1 [Compound 220],< 50
9,Cc1nc(NC2CCN(Cc3ccc4c(cc(C#N)n4C[C@H](C)N4CCC(CC(=O)N(C)C)CC4)c3C)CC2)c2cc(CC(F)(F)F)sc2n1 [Compound 221],< 50
10,Cc1c(CN2CCC(Nc3nc(F)nc4sc(CC(F)(F)F)cc34)CC2)ccc2c1cc(C#N)n2C[C@H](C)N1CCN(S(C)(=O)=O)CC1 [Compound 222],< 50
11,CNc1nc(NC2CCN(Cc3ccc4c(cc(C#N)n4C[C@H](C)N4CCNCC4=O)c3C)CC2)c2cc(CC(F)(F)F)sc2n1 [Compound 225],< 50
12,CNc1nc(NC2CCN(Cc3ccc4c(cc(C#N)n4C[C@H](C)N4CCN(C)CC4=O)c3C)CC2)c2cc(CC(F)(F)F)sc2n1 [Compound 226],< 50
13,CNc1nc(NC2CCN(Cc3ccc4c(cc(C#N)n4CC(C)c4ccc(=O)[nH]c4)c3C)CC2)c2cc(CC(F)(F)F)sc2n1 (stereo not shown) [Compound 229],< 50
14,CNc1nc(NC2CCN(Cc3ccc4c(cc(C#N)n4CC(C)c4cn[nH]c4)c3C)CC2)c2cc(CC(F)(F)F)sc2n1 (stereo not shown) [Compound 230],50 to 250
15,CNc1nc(NC2CCN(Cc3ccc4c(cc(C#N)n4C[C@H](C)N4CCN(S(C)(=O)=O)C(CO)C4)c3C)CC2)c2cc(CC(F)(F)F)sc2n1 (stereo partly shown) [Compound 233],< 50
16,Cc1c(CN2CCC(Nc3nc(CF)nc4sc(CC(F)(F)F)cc34)CC2)ccc2c1cc(C#N)n2C[C@H](C)N1CCN(S(C)(=O)=O)CC1 [Compound 241],50 to 250
17,Cc1nc(NC2CCN(Cc3ccc4c(cc(C#N)n4C[C@H](C)N4CCN(S(C)(=O)=O)CC4)c3C)CC2)c2c(C)c(CC(F)(F)F)sc2n1 [Compound 242],> 1000
18,CNc1nc(NC2CCN(Cc3ccc4c(cc(C#N)n4C[C@H](C)N4CCN(C)C(=O)C4)c3C)CC2)c2cc(CC(F)(F)F)sc2n1 [Compound 243],< 50
19,CNc1nc(NC2CCN(Cc3ccc4c(cc(C#N)n4C[C@H](C)N4CCNC(=O)C4)c3C)CC2)c2cc(CC(F)(F)F)sc2n1 [Compound 244],< 50
20,CC(=O)OCc1nc(NC2CCN(Cc3ccc4c(cc(C#N)n4C[C@H](C)N4CCN(S(C)(=O)=O)CC4)c3C)CC2)c2cc(CC(F)(F)F)sc2n1 [Compound 245],50 to 250

row,Structure (SMILES),IC50 [nM]
1,Cc1c(CN2CCC(Nc3nc(CO)nc4sc(CC(F)(F)F)cc34)CC2)ccc2c1cc(C#N)n2C[C@H](C)N1CCN(S(C)(=O)=O)CC1 [Compound 246],< 50
2,CNc1nc(NC2CCN(Cc3ccc4c(cc(C#N)n4CC(C)C4CCN(S(C)(=O)=O)CC4)c3C)CC2)c2cc(CC(F)(F)F)sc2n1 (stereo not shown) [Compound 247],< 50
3,CNc1nc(NC2CCN(Cc3ccc4c(cc(C#N)n4C[C@H](C)N4CCN(S(=O)(=O)CC(C)C)CC4)c3C)CC2)c2cc(CC(F)(F)F)sc2n1 [Compound 248],< 50
4,CNc1nc(NC2CCN(Cc3ccc4c(cc(C#N)n4C[C@H](C)N4CCC(NS(C)(=O)=O)CC4)c3C)CC2)c2cc(CC(F)(F)F)sc2n1 [Compound 249],< 50
5,CNc1nc(NC2CCN(Cc3ccc4c(cc(C#N)n4C[C@H](C)N4CCN(S(=O)(=O)CC5CC5)CC4)c3C)CC2)c2cc(CC(F)(F)F)sc2n1 [Compound 250],< 50
6,CNc1nc(NC2CCN(Cc3ccc4c(cc(C#N)n4C[C@H](C)N4CCN(S(=O)(=O)C(C)C)CC4)c3C)CC2)c2cc(CC(F)(F)F)sc2n1 [Compound 251],< 50
7,CNc1nc(NC2CCN(Cc3ccc4c(cc(C#N)n4C[C@H](C)N4CCN(S(C)(=O)=O)CC4)c3C)CC2)c2c(C)c(CC(F)(F)F)sc2n1 [Compound 252],> 1000
8,Cc1nc(NC2CCN(Cc3ccc4c(cc(C#N)n4C[C@H](C)N4CCC(S(C)(=O)=O)CC4)c3C)CC2)c2cc(C(O)C(F)(F)F)sc2n1 (stereo partly shown) [Compound 280],50 to 250
9,CNc1nc(NC2CCN(Cc3ccc4c(cc(C#N)n4C[C@H](C)N4C5CCC4CN(S(C)(=O)=O)C5)c3C)CC2)c2cc(CC(F)(F)F)sc2n1 [Compound 282],< 50
10,Cc1nc(NC2CCN(Cc3ccc4c(cc(C#N)n4C[C@H](C)N4C5CCC4CN(S(C)(=O)=O)C5)c3C)CC2)c2cc(CC(F)(F)F)sc2n1 [Compound 283],< 50
11,Cc1c(CN2CCC(Nc3ncnc4sc(CC(F)(F)F)cc34)CC2)ccc2c1cc(C#N)n2CCN1CCC(NS(C)(=O)=O)CC1 [Compound 1000],20 to 1000
12,CC(=O)NC1CCN(CCn2c(C#N)cc3c(C)c(CN4CCC(Nc5ncnc6sc(CC(F)(F)F)cc56)CC4)ccc32)CC1 [Compound 1001],20 to 1000
13,Cc1c(CN2CCC(Nc3ncnc4sc(CC(F)(F)F)cc34)CC2)ccc2c1cc(C#N)n2CCc1ccc(NC(=O)C2(C#N)CC2)cc1 [Compound 1002],50 to 250
14,Cc1c(CN2CCC(Nc3ncnc4sc(CC(F)(F)F)cc34)CC2)ccc2c1cc(C#N)n2CCc1ccc(NC(=O)CC#N)cc1 [Compound 1003],50 to 250
15,C=CC(=O)N(C)c1ccc(CCn2c(C#N)cc3c(C)c(CN4CCC(Nc5ncnc6sc(CC(F)(F)F)cc56)CC4)ccc32)cc1 [Compound 1010],> 1000
16,C#CCOc1cc(CCn2c(C#N)cc3c(C)c(CN4CCC(Nc5ncnc6sc(CC(F)(F)F)cc56)CC4)ccc32)ccc1NC(=O)C=C [Compound 1011],20 to 1000
17,C=CC(=O)Nc1ccc(CCn2c(C#N)cc3c(C)c(CN4CCC(Nc5ncnc6sc(CC(F)(F)F)cc56)CC4)ccc32)cc1OCc1cn(CCOCCOCCOCCNC(=O)CCCC[C@H]2SC[C@H]3NC(=O)N[C@H]32)nn1 [Compound 1012],> 1000
18,C/C=C(\C#N)C(=O)Nc1ccc(CCn2c(C#N)cc3c(C)c(CN4CCC(Nc5ncnc6sc(CC(F)(F)F)cc56)CC4)ccc32)cc1 [Compound 1013],50 to 250
19,CNc1nc(NC2CCN(Cc3ccc4c(cc(C#N)n4CCN4CCC(S(C)(=O)=O)CC4)c3C)CC2)c2cc(CC(F)(F)F)sc2n1 [Compound 1020],< 50
20,Cc1nc(NC2CCN(Cc3ccc4c(cc(C#N)n4CCN4CCC(S(C)(=O)=O)CC4)c3C)CC2)c2cc(CC(F)(F)F)sc2n1 [Compound 1021],< 50
